Tests used:
Assay in all cases: cells
Conditions in all cases: Homo sapiens
NCI-H23 = tested on: NCI-H23
UACC-257 = tested on: UACC-257
786-0 = tested on: 786-0
A498 = tested on: A498

Which results are given for `CCCn1cc(C=NN=C2C(=O)Nc3ccc(C)cc32)c2ccccc21` [Compound 8a]?
GI50 (NCI-H23; NCI-H23): 3.13 µM; CC50 (NCI-H23; NCI-H23, read-out: LC50): > 100 µM; GI50 (UACC-257; UACC-257): 12.3 µM; CC50 (UACC-257; UACC-257, read-out: LC50): > 100 µM; GI50 (786-0; 786-0): 5.94 µM; CC50 (786-0; 786-0, read-out: LC50): > 100 µM; GI50 (A498; A498): 1370 nM; CC50 (A498; A498, read-out: LC50): > 100 µM

From paper PMC7717600, “Novel [(N-alkyl-3-indolylmethylene)hydrazono]oxindoles arrest cell cycle and induce cell apoptosis by inhibiting CDK2 and Bcl-2: synthesis, biological evaluation and in silico studies” (Journal of Enzyme Inhibition and Medicinal Chemistry, 2020)
